In PubChem BioAssay (NCI):
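Dose response: 5 concentrations. Exposure: 48 h. Format: 96-well plates. Endpoint: linear interpolation; highest concentration if not reached. Here, GI50 denotes the concentration required for 50% inhibition of growth. At the TGI there is no net growth.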

Assays:
Test in all cases: NCI-60 cell line screen, 48 h
SNB-78 CNS = tested on: SNB-78 CNS
HCT-15 colon = tested on: HCT-15 colon
CAKI-1 renal = tested on: CAKI-1 renal
NCI/ADR-RES ovarian = tested on: NCI/ADR-RES ovarian

Compound	TGI (SNB-78 CNS) [µM]	TGI (HCT-15 colon) [µM]	GI50 (CAKI-1 renal) [µM]	TGI (CAKI-1 renal) [µM]	GI50 (NCI/ADR-RES ovarian) [µM]	TGI (NCI/ADR-RES ovarian) [µM]
O=C1CCC(c2ccccc2)=NN1c1nsc2ccccc12	> 100	> 100	–	–	–	–
COc1cnc2c(c1)C(=O)c1c-2n(CCCN2CCOCC2)c(=O)c2cc(Cl)ccc12	–	–	0.342	> 100	0.259	> 100
